Data set [1] is described as follows: Pharmacokinetics of [3H]-FTS in the mouse brain. Format: in vivo. The conditions noted are these: [3H]-FTS 3 mg/kg i.p. The procedure:
Farnesyl 1-^3H-thiosalicylic acid ([^3H]-FTS), 12.5 Ci/mmol, 1 mCi/mL, was purchased from American Radiolabeled Chemicals (ARC; St. Louis, Mo., U.S.A.). The labeled drug was isotopically diluted with unlabeled FTS. Mice (ICR strain) were injected i.p. with 0.1 ml of this FTS solution (14.8 μCi, 351 nmol, 3 mg/kg). At each time point (2.5, 5, 10, 20, 60, and 120 min) after the injection, two mice were killed and their brains were removed. The forebrains were washed in PBS, weighed and homogenized, and samples were counted in a scintillation fluid using an LKB β-counter with automatic correction for quenching. Data are expressed as [^3H]-FTS in dpm/g tissue as a function of time.
First it was necessary to determine whether FTS can enter the brain, and if so, whether it can exist there in the micromolar concentration range previously found to be relevant to its efficacy as a Ras inhibitor in vitro (Kloog et al. 1999). To this end, we performed pharmacokinetic experiments in which mice received [^3H]-FTS (3 mg/kg, i.p.), and the amounts of labeled inhibitor in the brain were then determined by counting radioactivity in samples of brain homogenates. […] Based on the specific activity of [^3H]-FTS and assuming a homogeneous distribution in the brain, we estimated that the peak concentration of FTS was 4.5 μM. Thus, under the conditions employed here, it appears that a pharmacologically relevant concentration of FTS in the brain was achieved.

The test system of data set [2] is mice subjected to closed head injury (CHI). Put plainly: Lesion volume after CHI in mice. Format: in vivo, mouse. The conditions noted are these: day 7 after CHI. The procedure: Seven days after CHI, vehicle-treated (n=5) and FTS-treated (n=4) mice were decapitated and their brains were removed (within 1 minute), frozen in powdered dry ice, and kept at −70° C. until used. Consecutive 20-μ cryostat sections of the whole forebrain were cut in the coronal plane, and one in every ten sections (i.e. at intervals of 200μ) was thaw-mounted onto coated microscope glass slides.
The films were scanned and digitized using PhotoShop and a large bed Umax scanner, and saved in tiff format for accessibility to NIH image software. Using NIH Image routines, the standard curve was measured and used to calibrate regional brain measurements. Morphometry routines were used to measure the lesion area on each section where it was visible. The volume was calculated by multiplying the summed lesion areas by the distance between sections (0.2 mm).

Data set [3] concerns primary hippocampal and cortical neuronal cultures. It is filed as cell-based, rat. How it is done: Hippocampal and cortical neuronal cultures were prepared from embryonic rat brain essentially as described by Mattson (Mattson P M, Barger S W, Begley J M and Mark R J, Methods Cell Biol 1995; 46: 187-216). Briefly, Sprague Dawley embryos (17-18 days of gestation) were removed and their brains were dissected under the hood and kept in cold in sterile HEPES buffered Hank's balanced salt solution (HBBS) lacking Ca^2+ and Mg^2+, containing 10 μg/ml gentamicin sulfate. The brain regions under study were dissected and cells were dissociated by mild 0.25% trypsin, counted and the dissociation buffer was replaced by culture medium as detailed in Mattson. The cells were plated on poly-L-lysine ([…] solution) coated 24 well plates in Neurobasal medium (Gibco, Grand Island, N.Y. # 2110 3-049) prepared as detailed in Mattson. Hippocampal or cortical cells were plated at a density of 5×10^5 cells per well in 24 well plates and grown in 1 ml medium. Cultures were a kept in humidified 95%, 5% air/CO2 incubator at 37 C for 7 days and then used for the experiments.
Cells were treated with 25 μM FTS either 24 h prior to glutamate (200 μM) treatment or immediately after glutamate treatment. Assays were performed in triplicates. Twenty-four hours after the glutamate treatment, the cells were subjected to viability-cytotoxicity assay using the Live/Dead reagent kit (L-7013, Molecular Probes) essentially as described by the manufacturer. Fluorescent images for live cells (Syto 10, green) and of dead cells (DEAD red) were collected with appropriate filters within 1 h of staining. The number of live cells was estimated by counting the green-labeled cells in 3 fields in each well. The number of live cells in each of the triplicate experimental samples was averaged. These values were used to estimate the percent of cell death comparing the glutamate treated cells (with or without FTS) to untreated controls. The read labeled dead cells could not be used for accurate estimation of cell death under the conditions used because unsynchronized cell-death leads to disintegration of dead cells resulting in inaccurate estimation of the number of dead cells.
In the typical experiments, either hippocampal or cortical neuronal culture was exposed to 25 μM FTS 24 h prior to the addition of glutamate. […] The cells were then exposed to 200 μM glutamate for 30 min. The medium was replaced by glutamate-free medium and 24 h later the cells were subjected to the Live/Dead assay. […] This level of cell death was used as a reference point in all experiments.

Data set [4] relates to rats subjected to closed head injury (CHI). In words: Neuroprotection, rat CHI model (NSS). It is filed as in vivo. The procedure:
Sabra (strain of the Hebrew University) rats (200-220 gr) were used. A weight (200 g) was dropped on the cone fixed on the exposed skull at the site (frontal left cortex) designated for injury (from a height of 20 cm), resulting in a focal injury. A maximal Neurological Severity Score (NSS) of 17 indicates severe neurological dysfunction, with failure of all tasks, whereas a score of zero is achieved by healthy uninjured animals. The NSS at 1 h after trauma reflects the initial severity of injury and is inversely correlated with neurological outcome. […] To assess the effect of FTS on neurological recovery, rats were randomly assigned to either vehicle or FTS treatment, given immediately after the initial NSS evaluation (at 1 hr after CHI). These assessments were performed by an observer blinded to the kind of treatment the animals have received. The extent of recovery (ΔNSS) was calculated as the difference between NSS at 1 hr and that at any later time point: ΔNSS (at time t)=NSS (1 h)−NSS (t).
Thus, the greater ΔNSS reflects greater recovery, and this parameter serves as a tool for evaluation of drug effects.

Where [5] appears, read: 25 μM FTS 24 h prior to 200 μM glutamate for 30 min, Live/Dead assay 24 h later.
[6] abbreviates: FTS 5 mg/kg bw ip 1 h after CHI, mean ± SD of 7 rats.

Entries after “also recorded” stand apart in the source; their conditions may differ.

For the compound `CC(C)=CCC/C(C)=C/CC/C(C)=C/CSc1ccccc1C(=O)O` [FTS, farnesyl-thiosalicylic acid], the “entry of FTS into the brain” value in data set [1] (mouse) is recorded as “enters the mouse brain; also recorded: crosses the blood-brain barrier”. For the same compound, in data set [1] (mouse forebrain), the “time for which FTS amounts in the brain remain relatively high” value was “at least 2 hrs” and the “time to peak amounts of FTS in the brain” value was in the range of 20 to 30 min. Further, the “peak concentration of FTS in the brain” value in data set [1] (estimated from specific activity assuming homogeneous distribution in the brain) was 4.5 µM. The compound also yielded a mean lesion volume in data set [2] (FTS 5 mg/kg 1 hr after CHI, mean±SD of 4 animals, control 155±41 μL, p<0.07) of 87 ± 53 µL. In data set [2] (FTS 5 mg/kg vs vehicle, trend, p<0.07), the “reduction in lesion volume (lesion size)” value was 50%. Moreover, in data set [2] (FTS 5 mg/kg, 4 animals), the “lesion volume, range” value was 37 to 161 µL. The “toxic effects of FTS alone on cultured hippocampal or cortical neurons” value in data set [3] is listed as “no toxic effects”. In data set [3] (setting [5]), the “toxic effect of glutamate in cortical cultures” value is recorded as “reduced the toxic effect of glutamate” and the “toxic effect of glutamate in hippocampal cultures” value was “markedly reduced”. In addition, the “neuroprotective effect against the glutamate toxicity” value in data set [3] (hippocampal and cortical cultures, 25 μM FTS 24 h prior to 200 μM glutamate) is recorded as 70%. For the same compound, the “percent cell death relative to glutamate treated cells (100% cell death)” value in data set [3] (hippocampal and cortical cultures, 25 μM FTS 24 h prior to 200 μM glutamate, FIG. 10) worked out at 30%. Moreover, the “Neurological Severity Score (NSS) 1 h” value in data set [4] (1 h after CHI, before treatment (baseline), maximal score 17, mean ± SD of 7 rats) is given as 9.71 ± 1.97. In addition, in data set [4] (setting [6]), the “ΔNSS = NSS (1 h) − NSS (time), 24 h” value was 1.86 ± 1.34 and the “ΔNSS = NSS (1 h) − NSS (time), 3 d” value was found to be 3.00 ± 1.29. Further, in data set [4] (FTS 5 mg/kg bw ip 1 h after CHI, mean ± SD of 7 rats, p = 0.019 vs control), the “ΔNSS = NSS (1 h) − NSS (time), 7 d” value is on record as 5.14 ± 1.07.

Source of the values: US20070054886A1, “Ras antagonists for treating neurodegenerative disorders” (RAMOT AT TEL AVIV UNIVERSITY, LTD., priority 2003, published 2007).
